From ChEMBL document CHEMBL5241078, “Emerging trends of receptor-mediated tumor targeting peptides: A review with perspective from molecular imaging modalities” (Eur J Med Chem, 2021) come the findings set out here.

This test addresses T1, Gastrin/cholecystokinin type B receptor (Homo sapiens, UniProt P32239).
T1 sequence (P32239 whole entry): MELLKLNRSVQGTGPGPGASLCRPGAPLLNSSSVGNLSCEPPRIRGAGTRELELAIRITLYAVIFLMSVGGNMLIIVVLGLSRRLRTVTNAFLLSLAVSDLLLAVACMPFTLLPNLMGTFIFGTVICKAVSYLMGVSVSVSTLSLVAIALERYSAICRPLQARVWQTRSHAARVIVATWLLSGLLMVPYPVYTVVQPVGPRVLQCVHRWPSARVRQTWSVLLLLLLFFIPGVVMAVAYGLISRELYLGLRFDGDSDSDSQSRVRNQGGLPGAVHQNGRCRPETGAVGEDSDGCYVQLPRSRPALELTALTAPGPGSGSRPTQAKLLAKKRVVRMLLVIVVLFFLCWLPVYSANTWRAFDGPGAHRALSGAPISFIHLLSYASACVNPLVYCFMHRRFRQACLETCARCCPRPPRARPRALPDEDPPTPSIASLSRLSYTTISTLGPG
The experiment in a line: Binding affinity to human CCK2R expressed in human A-431 cells. Format: cell-based.

As for `CCCCC[C@H](NC(=O)[C@H](Cc1c[nH]c2ccccc12)NC(=O)[C@H]1CCCCNC(=O)[C@H](NC(=O)c2ccc(NN)nc2)CCC(=O)N[C@@H](C)C(=O)N[C@@H](Cc2ccc(O)cc2)C(=O)N1)C(=O)N[C@@H](CC(=O)O)C(=O)N[C@@H](Cc1ccccc1)C(N)=O`, the IC50 amounted to 3.23 nM.

`CSCCC[C@H](NC(=O)[C@H](Cc1c[nH]c2ccccc12)NC(=O)[C@H]1CCCCNC(=O)[C@H](NC(=O)c2ccc(NN)nc2)CCC(=O)N[C@@H](C)C(=O)N[C@@H](Cc2ccc(O)cc2)C(=O)N1)C(=O)N[C@@H](CC(=O)O)C(=O)N[C@@H](Cc1ccccc1)C(N)=O` yielded an IC50 of 2.54 nM.

As a reminder, the IC50 is the concentration that inhibits the measured activity by half. A higher IC50 goes with lower potency.
